Data as given in PubChem BioAssay (NCI).
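48-hour exposure; five concentrations; linearly interpolated endpoints. At the GI50, growth is halved. TGI denotes the concentration required for complete inhibition of growth.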

Assays:
Assay in all cases: growth of human tumour cells (NCI), 48 h
OVCAR-4 ovarian = tested on: OVCAR-4 ovarian
BT-549 breast = tested on: BT-549 breast
ACHN renal = tested on: ACHN renal
PC-3 prostate = tested on: PC-3 prostate
NCI-H23 lung = tested on: NCI-H23 lung
TK-10 renal = tested on: TK-10 renal
SK-MEL-5 melanoma = tested on: SK-MEL-5 melanoma
NCI-H460 lung = tested on: NCI-H460 lung

SMILES | TGI (OVCAR-4 ovarian) | TGI (BT-549 breast) | TGI (ACHN renal) | TGI (PC-3 prostate) | TGI (NCI-H23 lung) | TGI (TK-10 renal) | TGI (SK-MEL-5 melanoma) | TGI (NCI-H460 lung) | GI50 (OVCAR-4 ovarian) | GI50 (BT-549 breast) | GI50 (ACHN renal) | GI50 (PC-3 prostate) | GI50 (NCI-H23 lung) | GI50 (TK-10 renal) | GI50 (SK-MEL-5 melanoma) | GI50 (NCI-H460 lung)
CN(C)c1ccc2cc3ccc(N(C)C)cc3nc2c1 | 3.37 µM | 22.1 µM | 3.67 µM | 9.48 µM | 6.17 µM | 9.21 µM | 8.34 µM | 1.99 µM | – | – | – | – | – | – | – | –
Cc1ccc2nc3c(n2c1)C(=O)C(=O)c1ccccc1-3 | 0.537 µM | 0.307 µM | 0.88 µM | 3.81 µM | 0.576 µM | 2.9 µM | 0.244 µM | 0.718 µM | 0.21 µM | 0.168 µM | 0.269 µM | 0.59 µM | 0.217 µM | 1.28 µM | 0.112 µM | 0.173 µM
CNC(=O)c1cc(Oc2ccc3nc(N[C@@H]4CCCC[C@H]4O)sc3c2)ccn1 | > 100 µM | > 100 µM | > 100 µM | > 100 µM | > 100 µM | > 100 µM | 38.1 µM | > 100 µM | 31.2 µM | 31.8 µM | 55.8 µM | 33.7 µM | 59.3 µM | > 100 µM | 18.1 µM | 53.4 µM
Clc1ccc2nc(Cl)c3ccccc3c2c1 | 5.02 µM | > 100 µM | > 100 µM | > 100 µM | > 100 µM | 31.8 µM | > 100 µM | 11.8 µM | 2.03 µM | 36.1 µM | 4.04 µM | > 100 µM | 74.9 µM | 4.96 µM | > 100 µM | 3.29 µM
Cc1ccc(-c2cc(-c3ccc(C)cc3)nc(N3CCN(CCNc4ccnc5cc(Cl)ccc45)CC3)n2)cc1 | 1.9 µM | 17 µM | 14.5 µM | 30.9 µM | 17.5 µM | 8.12 µM | 18.3 µM | 9.2 µM | 0.912 µM | 6.06 µM | 6.18 µM | 3.14 µM | 3.63 µM | 2.29 µM | 6.65 µM | 2.21 µM
O=c1c2c(=NCCN3CCCC3)cc3c(=O)n(CCCN4CCOCC4)c(=O)c4ccc(c(O)n1CCCN1CCOCC1)c2c4-3 | 0.735 µM | 2.99 µM | 1.51 µM | 0.638 µM | 0.627 µM | 1.62 µM | 0.918 µM | 1.08 µM | 0.13 µM | 0.917 µM | 0.0909 µM | 0.0919 µM | 0.118 µM | 0.195 µM | 0.442 µM | 0.0791 µM
O=C(Oc1ccccc1Cl)c1ccccc1Nc1cccc(C(F)(F)F)c1 | > 100 µM | 52.6 µM | > 100 µM | > 100 µM | 73.7 µM | 67.9 µM | 30.8 µM | > 100 µM | 62.7 µM | 18.3 µM | 40.3 µM | 26 µM | 19.8 µM | 32.7 µM | 14.8 µM | 37.3 µM
CN(C)c1ccc(Nc2c3ccccc3nc3cc(NC(=O)CCN4CCCC4)ccc23)cc1 | 2.16 µM | 2.73 µM | 1.12 µM | 2.17 µM | 1.35 µM | 3 µM | 2.32 µM | 0.683 µM | 0.57 µM | 1.3 µM | 0.321 µM | 0.577 µM | 0.29 µM | 1.13 µM | 1.04 µM | 0.0423 µM
CCSc1ccc([C@@H]2[C@@H](N)C(=O)N2c2cc(OC)c(OC)c(OC)c2)cc1 | > 100 µM | > 100 µM | > 100 µM | > 100 µM | > 100 µM | > 100 µM | > 100 µM | > 100 µM | 9.31 µM | 0.0592 µM | 0.071 µM | 0.0773 µM | 14.3 µM | 30.6 µM | 0.0783 µM | 0.0488 µM
Oc1ccc2ccccc2c1N=Nc1ccc(Cl)cc1 | > 100 µM | > 100 µM | > 100 µM | > 100 µM | > 100 µM | > 100 µM | > 100 µM | – | – | – | – | – | – | – | – | –
O=C(O)c1cn(C2CC2)c2cc(N3CCNCC3)c(F)cc2c1=O | > 100 µM | > 100 µM | > 100 µM | > 100 µM | > 100 µM | > 100 µM | > 100 µM | > 100 µM | > 100 µM | > 100 µM | > 100 µM | > 100 µM | > 100 µM | > 100 µM | > 100 µM | > 100 µM
O=C1/C(=C/c2ccc(Cl)cc2)CN(C(=O)CCN2CCC(=NO)CC2)C/C1=C\c1ccc(Cl)cc1 | 2.39 µM | 2.85 µM | 1.56 µM | 1.57 µM | 2.63 µM | 2.93 µM | 3.1 µM | 2.73 µM | 0.834 µM | 1.47 µM | 0.557 µM | 0.481 µM | 1.13 µM | 1.46 µM | 1.66 µM | 0.888 µM
Fc1ccc([C@@H]2CCNC[C@H]2COc2ccc3c(c2)OCO3)cc1 | 23.1 µM | 26.1 µM | 24 µM | 17.2 µM | 32.5 µM | 23.8 µM | 17 µM | 18.6 µM | 10.6 µM | 12.2 µM | 10.8 µM | 3.83 µM | 15.4 µM | 11.3 µM | 4.42 µM | 5.51 µM
COc1ccc(-c2nnc(SCC(=O)Nc3ccc(C(=O)/C=C/c4cc(OC)c(OC)c(OC)c4)cc3)n2-c2ccccc2)cc1OC | > 10 µM | 7.99 µM | > 10 µM | > 10 µM | > 10 µM | > 10 µM | > 10 µM | > 10 µM | > 10 µM | 1.98 µM | 5.69 µM | 6.89 µM | 8.27 µM | > 10 µM | 7.79 µM | 8.54 µM
O=C(Nc1ccc(Oc2ccc(NC(=O)Nc3ccc([N+](=O)[O-])cc3)cc2)cc1)Nc1ccc([N+](=O)[O-])cc1 | > 100 µM | 7.36 µM | > 52.6 µM | > 22.8 µM | 30.8 µM | > 26.7 µM | 3.32 µM | 6.61 µM | 2.07 µM | 2.06 µM | 1.92 µM | 1.04 µM | 1.23 µM | 2.11 µM | 1.66 µM | 1.74 µM
Oc1ccc(Oc2cnc3cc(Cl)ccc3n2)cc1 | > 100 µM | > 100 µM | > 100 µM | > 100 µM | > 100 µM | > 100 µM | > 100 µM | 53.1 µM | 28.2 µM | 20.9 µM | 36.3 µM | 23.6 µM | 52.8 µM | > 100 µM | 28.6 µM | 20.1 µM
CCOc1cc2c(=O)oc3c(OC)ccc4ccc(c1OC)c2c43 | > 100 µM | – | > 100 µM | > 100 µM | > 100 µM | > 100 µM | > 100 µM | > 100 µM | – | – | – | – | – | – | – | –
COc1ccc(/C=C\c2cc(OC)c(OC)c(OC)c2)cc1OCC(=O)Nc1nc2ccccc2s1 | > 100 µM | > 100 µM | > 100 µM | > 100 µM | > 100 µM | – | 0.263 µM | > 100 µM | 0.476 µM | 0.303 µM | 0.107 µM | 0.183 µM | 0.0966 µM | – | 0.0405 µM | 0.0476 µM
O=C(Cc1csc2nc(-c3ccc(Br)cc3)cn12)N/N=C/c1ccc(Cl)cc1Cl | > 100 µM | 76.9 µM | 53.6 µM | > 100 µM | 56.4 µM | – | > 100 µM | > 100 µM | 37.3 µM | 25.9 µM | 22.6 µM | 30.2 µM | 25.6 µM | – | 44.2 µM | > 100 µM
O=C1CC(c2ccsc2)c2snc(-c3ccc(Cl)cc3)c2N1 (stereo not given) | > 100 µM | > 100 µM | > 100 µM | > 100 µM | > 100 µM | – | 2.4 µM | > 100 µM | 5.6 µM | 2.26 µM | 5.39 µM | 2.05 µM | 1.76 µM | – | 0.404 µM | 0.581 µM
COc1ccc(-c2nc(-c3ccccn3)c(-c3ccccn3)n2CC(C)C)cc1OC1CCCC1 | 126 µM | > 165 µM | > 165 µM | 83.8 µM | > 165 µM | – | 38.4 µM | 99.7 µM | 32.3 µM | 50 µM | 6.92 µM | 11.1 µM | 28.5 µM | – | 11.4 µM | 32.1 µM
COc1cc(OC)c(F)c(COc2cnc(Nc3cnn(CCO)c3)nc2)c1F | > 100 µM | > 100 µM | – | > 100 µM | > 100 µM | > 27.9 µM | 2.71 µM | > 100 µM | 0.617 µM | 0.177 µM | – | 1.68 µM | 1.86 µM | 1.01 µM | 0.501 µM | 0.444 µM
O=C(NO)c1ccc(Cn2c(=O)n(-c3ccccc3)c(=O)c3ccccc32)cc1 | 18.7 µM | 3.92 µM | 6.37 µM | 4.53 µM | – | 8.08 µM | 2.3 µM | 9.19 µM | 1.56 µM | 1.55 µM | 1.67 µM | 1.72 µM | – | 1.02 µM | 1.06 µM | 1.44 µM
